Test results: patent publication US20260286316A1, “METHOD OF PRODUCTION OF MODIFIED PHAGE AND METHOD OF TREATMENT USING SAME” (priority 2022, published 2026)
Converted amounts (≈) assume the structure as drawn.

Key:
S. aureus CI3 [1] = assay: Phage combined with ½ MIC antibiotics on planktonic S. aureus (OD600), CI3; assay type: cell-based, Staphylococcus aureus; details: ½ MIC antibiotic, phage MOI=0.2, 24 hours
Method: (§1) Initial screening was performed in 100 μl in 96 well plates, with follow up experiments in 10 mL culture volume. S. aureus strains were grown on 1.5% Tryptone Soya Agar (TSA) at 37° C. overnight. Single colonies were transferred to Tryptone Soya Broth (TSB) to generate a culture with a starting concentration of 5×10^5 CFU/ml. […] Antibiotics were added to the cultures at ½ MIC (according to the pretest MIC of antibiotics) if required. Optical density (OD) readings at 600 nm were recorded at 24 hours to assess the growth of bacteria co-inoculated with phage unless otherwise specified. Uninoculated, fresh media was included as a sterility control.

[2] = tested on: S. aureus ATCC51650 and CI11; assay: Dose-dependence of clindamycin in combination with phage J-Sa36 (OD600); assay type: cell-based, Staphylococcus aureus; details: with J-Sa36 MOI=0.2, 24 hours; ⅛th the MIC
Method: as §1

S. aureus CI3 [3] = assay: Rat rhinosinusitis model, efficacy arm (sinus mucosa CFU, biofilm biomass, histopathology); assay type: in vivo, Sprague Dawley rats; details: Sa87, ½ MIC clindamycin or ½ MIC azithromycin only
Text: Rat nasal tissues were fixed in 10% neutral buffered formalin. Tissue samples were then decalcified using 9.5% nitric acid in 1% ethylenediaminetetracetic acid (EDTA), processed to paraffin wax, and 6 μm sections cut and stained with H&E. The samples were examined by a veterinary pathologist blinded to the treatments given.
An established murine rhinosinusitis model was used with modifications (see YU C-j et al., Chinese Journal of Otorhinolaryngology-Skull Base Surgery 6, 2011; Zhang F et al., Am J Rhinol Allergy 27 (5): 361-366, 2013; and Jin M et al., Ear Arch Oto-Rhino-L 268 (6): 857-861, 2011). […] The sponges were placed at approximately 15 mm from the anterior nostril, located in the ostiomeatal complex. The rats were monitored for a nine-day period to allow for mucosal biofilms to form, and, on the tenth day, the sponges were removed. A two-day recovery was given to the rat before treatments begun. […] Treatments were administered intranasally twice a day for 14 days. Rats were monitored for weight and respiratory alterations (respiration rate; nasal discharge, hyperaemia or pruritus; and sneezing) during treatment, and, 14 days post-treatment initiation, the rats were humanely sacrificed. Their sinus mucosa was harvested for CFU counting, biofilm quantification, histopathology, and phage enumeration. […]
The quantification of biofilm biomass on sinus mucosa was determined using an established protocol (Singhal D et al., editors. Quantitative analysis of in vivo mucosal bacterial biofilms. International Forum of Allergy & Rhinology; 2012: Wiley Online Library (27). Briefly, the frontal sinus mucosa was harvested and placed into Dulbecco's Modified Eagle's Medium (Life Technologies, Carlsbad, CA, United States of America) on ice. One piece of mucosa from each frontal sinus was stained with a LIVE/DEAD® BacLight Bacterial Viability Kit (Life Technologies Australia). The stained mucosa was then examined at 20× magnification using a confocal laser scanning microscope (Zeiss LSM700, Carl Zeiss AG, Oberkochen, Germany). […]

S. aureus ATCC25923 = assay: Clindamycin MIC assay (Example 2); assay type: cell-based; details: Staphylococcus aureus; strain ATCC25923
Method: (§2) The MIC of clindamycin against the S. aureus strains was assessed using the broth microdilution technique as previously described (see Wiegand et al., 2008 supra). Results were interpreted as follows: Sensitive: ≤0.2 μg/mL; Intermediate: 0.4 μg/ml; Resistant: >0.6 μg/mL. The S. aureus strains sensitive to clindamycin were selected for further tests. The MIC was performed three times.

S. aureus C319 = assay: Clindamycin MIC assay (Example 2); assay type: cell-based; details: Staphylococcus aureus; strain C319
Method: as §2

S. aureus C330 = assay: Clindamycin MIC assay (Example 2); assay type: cell-based; details: Staphylococcus aureus; strain C330
Method: as §2

S. aureus C43 = assay: Clindamycin MIC assay (Example 2); assay type: cell-based; details: Staphylococcus aureus; strain C43
Method: as §2

[4] = tested on: phage non-sensitive S. aureus strains (C43, C330, C285 and C319); assay: Phage and clindamycin combination treatment (OD600); assay type: cell-based, Staphylococcus aureus; details: ½ MIC clindamycin only or phage only (MOI=1), 24 hours
Text: FIG. 6 provides graphical results showing that the combination of S. aureus phage and ½ MIC clindamycin kills non-sensitive S. aureus strains: (A) S. aureus C43 treated with APTC-SA-2 and ½ MIC clindamycin; (B) S. aureus C330 treated with APTC-SA-2 and ½ MIC clindamycin; (C) S. aureus ATCC25923 treated with APTC-SA-2 and ½ MIC clindamycin; (D) S. aureus C285 treated with APTC-SA-12 and ½ MIC clindamycin; (E) S. aureus C319 treated with APTC-SA-12 and ½ MIC clindamycin; and (F) S. aureus ATCC25923 treated with APTC-SA-12 and ½ MIC clindamycin. Significance was determined compared to untreated control. Data expressed as mean±SEM for three independent experiments. ****, p<0.0001; ns, no significant. C=clindamycin;
A phage and clindamycin synergy assay was performed using 96 well plates. In brief, selected S. aureus strains (phage non-sensitive) were grown on 1.5% TSA at 37° C. overnight. A single colony was transferred to TSB to generate a culture with a starting concentration of 5×10^5 CFU/ml. Phages were added to the bacteria culture at a MOI of 1 according to phage titers. Clindamycin was added to the cultures at ½ MIC (according to the MIC assay result). Optical density (Gorski A et al., Antibiotics (Basel) 9 (11), 2020) readings at 600 nm were recorded after 24 hours.

CCC[C@@H]1C[C@@H](C(=O)N[C@@H]([C@H]2O[C@H](SC)[C@H](O)[C@@H](O)[C@H]2O)[C@H](C)Cl)N(C)C1 [clindamycin]
synergistic effects with phage J-Sa36, Sa83 and Sa87 on bacterial viability (OD600) (S. aureus CI3 [1]): synergistic effects | lowest effective concentration of clindamycin required to facilitate phage J-Sa36 killing [2]: 0.025 µg/mL | histopathology of the maxilloturbinates, single agent (S. aureus CI3 [3]): evidence of cilial denudation and surface epithelial erosion | MIC (S. aureus ATCC25923): 0.2 µg/mL (≈ 0.471 µM) | MIC (S. aureus C319): 0.2 µg/mL (≈ 0.471 µM) | MIC (S. aureus C330): 0.2 µg/mL (≈ 0.471 µM) | MIC (S. aureus C43): 0.2 µg/mL (≈ 0.471 µM) | growth of S. aureus bacteria vs control, single agent [4]: similar
